Data from patent publication US20250092353A1, “COMMENSAL FUNGUS AND USES THEREOF” (YEDA RESEARCH AND DEVELOPMENT CO. LTD., priority 2022, published 2025).

Columns and labels:
[1] = tested on: neutrophils, classical and non-classical monocytes; assay: Flow cytometric analysis of myeloid blood cell compartment of colonized mice; type: in vivo; conditions: Abx-treated mice, 4 weeks colonized
From the text: FIGS. 4A-4F include graphs showing humoral and cellular immune responses to C. albicans and Kazachstania sp. (4A) Flow cytometric analysis of myeloid blood cell compartment of mice 4 weeks colonized with C. albicans or K. weizmannii. Neutrophils, classical and non-classical monocytes are defined as Ly6G+CD 115−, Ly6C+CD 115+, and […], respectively. N=8-21 mice, pooled from 3 independent experiments. Gating strategy, left, results, right. (4B) Flow cytometric analysis of humoral anti-fungal reactivity. Gating strategy for the determination of serum immunoglobulin binding to cultured C. albicans or K. weizmannii. (4C) Anti-C. albicans and K. weizmannii IgA and IgG serum reactivity of single-colonized animals, measured as shown in (4B). Note that most but not all animals harbor cross-reactive sera. (4D) Representative gating strategy of RORγt+ T cells (left); percentage of RORγt+ cells among TCRβ CD4+ T cells 5 weeks upon C. albicans or K. weizmannii colonization, n=3-5 mice per group, 3 independent experiments (right). […] EC damage was assessed using the LDH assay as described in (Allert et al., 2018). […]
Methods adhered to published guidelines (Cossarizza et al., 2019). Flow cytometry samples were recorded on BD LSR Fortessa 4 lasers or Cytek Aurora followed by data analysis using the FlowJo software (Treestar).

[2] = tested on: C. albicans; assay: In vitro co-culture assay of C. albicans and K. weizmannii; type: cell-based, Candida albicans; conditions: in vitro coculture, flow cytometry
Procedure: FIGS. 2A-2F include micrographs, graphs, a plot, and a curve showing in vitro culture characteristics of K. weizmannii. (2A) Representative images of C. albicans and K. weizmannii in liquid media in presence of filament-inducing conditions, n=3 independent experiments. (2B) A graph showing largest differences in growth between K. weizmannii and C. albicans with different carbon sources, based on a z-score > or <2. Differences were calculated using the normalized area under the curve (AUC) of K. weizmannii and C. albicans. Normalization of the AUC are based on the growth of both species with glucose. Size of data points corresponds to the normalized AUC of K. weizmannii with the corresponding carbon source. All measurements were done using the Biolog Phenotype MicroArrays in biological triplicates. […] The data points are color-coded according to the different types of carbon sources. (2C) A graph showing the largest differences in growth between K. weizmannii and C. albicans with different nitrogen sources, based on a z-score greater than or less than 2. Differences were calculated using AUC of K. weizmannii and C. albicans and normalized based on the growth of both species with glutamine. […] GFP expressing C. albicans was detected by flowcytometry to discriminate between fungi, n=2 independent experiments.

[3] = Fungal-mediated pathology in cortisone 21-acetate immunosuppressed colonized mice; type: in vivo; conditions: cortisone 21-acetate 225 mg/kg s.c. every other day
Procedure: Stably fungal-colonized mice were 5×s.c injected with 225 mg kg-1 with cortisone 21-acetate, following the scheme of injection every other day as described previously (Solis and Filler, 2012). Mice were monitored for weight loss. Following sacrifice, organs and feces were collected for histological examination, flow cytometry and fungal cultivations). If the weight dropped […], mice were sacrificed according to IACUC protocol.
Mice were euthanized and intestines, kidneys and tongue were excised and fixed overnight in 4% paraformaldehyde at 4° C. Paraffin embedding and sectioning was performed by the institutional histology unit. For immunohistochemistry of gut samples, slides were deparaffinized by 2 washes of Xylene followed by 100%, 96%, 70% EtOH and three washes with PBS. Slides were incubated for 30 minutes in 1% hydrogen peroxide in PBS at room temperature in the dark. After washing three times in PBS, slides were boiled for 10 minutes in Citric acid buffer pH 6.0 (10 mM citric acid and 0.05% Tween-20 in DDW), then washed with PBS three times. […] For histopathology of typical tongue or kidney fungal lesions in the mouse model of immunosuppression, paraffin sections were stained with periodic acid-Schiff (PAS) or H&E and slides were captured using a Panoramic SCAN II (3DHISTECH) and analyzed using CaseViewer software (3DHISTECH).

[4] = tested on: C2BBe1 cells; assay: Epithelial cell co-culture cytotoxicity (LDH assay); type: cell-based
Procedure: Quantification of cytotoxicity (LDH assay). Differentiated C2BBe1 cells in 96-well plates were infected for a defined time period with 10^4 C. albicans, S. cerevisiae and K. weizmannii. cells/well. After coincubation, epithelial damage was quantified by measuring LDH release using a cytotoxicity detection kit (Roche) according to the manufacturer's instructions.

In the case of Kazachstania weizmannii [K. weizmannii], the “abundance of blood granulocytes and monocytes” value [1] is reported as “no significantly altered abundance of granulocytes, classical or non-classical monocytes”, the “growth interference in co-culture with C. albicans” value [2] is reported as “grew together without interference” and the “weight loss and fungal spread” value [3] is reported as “neither weight loss nor evidence of fungal spread”. The “protection from C. albicans-induced EC damage” value ([4]; co-infection with K. weizmannii and C. albicans) was “did not prevent EC damage” and the “EC damage / viability (LDH release)” value ([4]; single fungus co-culture) was “did not affect EC viability”.
